Patent publication US9271982B2, “Animal feed supplement comprising ractopamine and caffeine” (Rivalea (Australia) Pty Ltd, priority 2012, dated 2016)
Structures can show the parent of a compound that is named as a salt. Where two headings read alike, the source gives them in different places.

Tests used:
[1] = test system: female and immunocastrated male pigs; assay: Study 2: RAC+caffeine strategy on heavier weight finishers, growth performance and carcass characteristics; assay type: in vivo, pig; details: for ADFI / ADG / FCR: Study 2, RAC 7.5 ppm
Description: Pigs were selected over a two week period. […] A: Control; B: […] The interpretation of results is then a direct measure of the impact of commercial diets without RAC and commercial diets that do contain RAC. […] Pigs were slaughtered in a commercial abattoir at the conclusion of the test period. A subset of carcasses (n=12 per treatment) were randomly selected at the abattoir and followed through the boning room for meat yield assessment. Data were subjected to an analysis of variance (ANOVA) with the main effects being dietary treatment and sex. Replicate (start date within week) was included in, the analyses to account for the blocking factor. The experimental unit for all analyses was the pen of pigs. All analyses were performed using Genstat 8th Edition (Payne et al. 2005).

[2] = test system: female and immunocastrated male pigs; assay: Study 2: carcass (meat) yield in a subset of carcasses followed through the boning room; assay type: in vivo, pig; details: Study 2 subset of carcasses, n = 12 per treatment
Description: Pigs were slaughtered in a commercial abattoir at the conclusion of the test period. A subset of carcasses (n=12 per treatment) were randomly selected at the abattoir and followed through the boning room for meat yield assessment.
Data were subjected to an analysis of variance (ANOVA) with the main effects being dietary treatment and sex. Replicate (start date within week) was included in, the analyses to account for the blocking factor. The experimental unit for all analyses was the pen of pigs. All analyses were performed using Genstat 8th Edition (Payne et al. 2005).

[3] = test system: finisher gilts and Improvac males; assay: Study 1: deaths, removals and animal welfare during the test period; details: for Deaths (dead/total pigs in treatment group) / Deaths, percentage of pigs: Study 1, entire 35 day test period
Description: (§1) Pigs were selected to start on trial over three days during week 20 of the test year. […] All diets were formulated to contain 0.62 g available lysine/MJ DE and 13.8 MJ DE/kg.

[4] = test system: female and immunocastrated male pigs; details: Study 3, 35 day test period
Method: All animals were selected to start the trial on the one day. Prior to the start of the trial, all pigs were offered a commercial grower diet (no Paylean) and had been in their allocated pens from 10 weeks of age. No remixing of pigs occurred before the start of the test period. […] Oxytetracycline was included in water for two days every fortnight for lawsonia control.
The priming Improvac™ vaccination was administered to the male pigs at 13 weeks of age and the second vaccination at 17 weeks of age (day 0 of the experimental period). Pen weights were recorded at the beginning of the experimental period (day 0, 17 weeks of age) and again at day 14 and day 35 (prior to slaughter). Pen feed Intakes were also recorded over these time periods as measured by feed disappearance and feed conversion efficiency subsequently calculated. All deaths and removals were recorded and taken into account when calculating feed intake and feed efficiency by the adjustment of the number of days that pigs were on trial.

[5] = test system: finisher gilts and Improvac males; assay type: in vivo, pig; details: for ADFI / FCR / Live weight Day 0 / Live weight Day 14 / Live weight Day 35: RAC 7.5 ppm / caffeine 0.5 kg/t in feed; for Live weight Day 0: day 0 baseline, 16 wk of age; for % pigs P2 >12 mm (carcass weight as covariate): carcass weight included as covariate; for % pigs P2 >12 mm: no covariate
Method: as §1
Data were subjected to an analysis of variance (ANOVA) with the main effects being dietary treatment and sex. Replicate (start date within week) was included in the analyses to account for the blocking factor. The experimental unit for all analyses was the pen of pigs. All analyses were performed using Genstat 8th Edition (Payne R W, Harding S A, Genstat Committee 2005 Genstat release 8 reference manual, USN International: Oxford UK)

[6] = test system: female and immunocastrated male pigs; assay: Study 3: RAC+caffeine feeding strategy over summer, growth performance and carcase characteristics; assay type: in vivo, pig
Method: Data were subjected to an analysis of variance (ANOVA) with the main effects being dietary treatment and sex. Replicate (start date within week) was included in the analyses to account for the blocking factor. The experimental unit for all analyses was the pen of pigs. All analyses were performed using Genstat 8th Edition (Payne et al. 2005).

finisher pigs = assay: Earlier study evaluating caffeine inclusion rates in finisher diets; assay type: in vivo, pig; details: for Feed intake: without caffeine 2.62 kg/d
Description: The management of weight and carcass P2 during Autumn is critical in markets that are paid on a grid of both parameters. The rate of fat deposition is at a maximum during the finisher period and is related to the amount of energy consumed by the pig. Excess energy intake above that required for protein deposition during this time is deposited as fat. As such, strategies to reduce feed intake from the excessive highs during autumn are often implemented. Caffeine is one ingredient that can be included in finisher diets to limit excessive feed intake. A study evaluating caffeine inclusion rates was conducted with the results confirming the intake restricting effects of caffeine inclusion. Feed intake was reduced from 2.62 kg/d to 2.45 and 2.33 kg/d with caffeine included in the diet at either 0.5 kg/t or 0.75 kg/t respectively. […] There has however been no evaluation of the effects of caffeine inclusion when the finisher diet also contains Paylean™. As such, the aim of this study was to determine the effects of caffeine inclusion when Paylean™ is also present in the finisher diet.

[7] = caffeine 0.5 kg/t in feed, 0-14 days
[8] = caffeine 0.5 kg/t in feed, 0-28 days
[9] = caffeine 0.5 kg/t in feed, 14-28 days
[10] = Study 2, carcass weight included as covariate
[11] = Study 1 (autumn), diets fed 35 days
[12] = Study 1 (autumn), diets fed 35 days, slaughter at 21 wk

`CC(CCc1ccc(O)cc1)NCC(O)c1ccc(O)cc1` (racemic) [RAC, Ractopamine hydrochloride] gave a Dressing % ([1]; Study 2) of 77.1%, a Live weight Day 0 ([1]; Study 2 (22-26 wk), RAC 7.5 ppm, caffeine 0.5 kg/t in feed, day 0 baseline) of 92.1 kg and a Live weight Day 14 ([1]; Study 2 (22-26 wk), RAC 7.5 ppm, caffeine 0.5 kg/t in feed, day 14) of 106 kg. The “Live weight Day 28” value ([1]; Study 2 (22-26 wk), RAC 7.5 ppm, caffeine 0.5 kg/t in feed, day 28, in kg (unit assumed)) was 120.1, the ADFI [1, 7] was 2.92 kg/day and the ADG [1, 7] was 0.995 kg/day. It also gave an FCR [1, 7] of 2.98 kg/kg, an ADFI [1, 8] of 3.04 kg/day and an ADG [1, 8] of 1.002 kg/day. It also gave an FCR [1, 8] of 3.11 kg/kg, an ADFI [1, 9] of 3.15 kg/day and an ADG [1, 9] of 1.008 kg/day. For the same compound, the FCR [1, 9] was 3.28 kg/kg, the “Carcass P2 (carcass weight as covariate)” value [1, 10] was 11.9 mm and the “Loin depth (carcass weight as covariate)” value [1, 10] was 58.3 mm. For the same compound, the “Carcass P2” value ([1]; Study 2, no covariate) was 12.0 mm, the Carcass weight ([1]; Study 2, slaughter at 26 wk) was 92.9 kg and the “Carcass P2 (carcass weight as covariate)” value [2] was 12.2 mm. For the same compound, the Cold carcass weight [2] was 82.6 kg, the HSCW [2] was 93.4 kg and the “Loin depth (carcass weight as covariate)” value [2] was 58.2 mm. For the same compound, the “Percentage Yield: Belly” value [2] was 20.7%, the “Percentage Yield: Belly Ribs” value [2] was 11.39% and the “Percentage Yield: Leg 90% chemical lean” value [2] was 6.90%. For the same compound, the “Percentage Yield: Middle 60-65% chemical lean” value [2] was 2.43%, the “Percentage Yield: Middle 80-85% chemical lean” value [2] was 9.72% and the “Percentage Yield: Middle rind plus fat” value [2] was 10.58%. For the same compound, the “Percentage Yield: Middle total fat” value [2] was 7.36%, the “Percentage Yield: Retail leg” value [2] was 35.80% and the “Percentage Yield: Tenderloin” value [2] was 3.65%. The “Percentage Yield: Topside cap off rind less” value [2] was 7.79%, the “Off trial: Lame (number of pigs)” value ([3]; Study 1, 0-14 days) was 1 and the “Off trial: Meningitis (number of pigs)” value ([3]; Study 1, 0-14 days) was 1. The “Off trial: Wound (number of pigs)” value ([3]; Study 1, 0-14 days) was 1, the “TOTAL deaths and removals (number of pigs)” value (“TOTAL deaths and removals” below) ([3]; Study 1, 0-14 days) was 3 and the “Deaths: Hernia (number of pigs)” value ([3]; Study 1, 14-35 days) was 1. The “Deaths: Ileitis (number of pigs)” value ([3]; Study 1, 14-35 days) was 1, the “Off trial: Lame (number of pigs)” value ([3]; Study 1, 14-35 days) was 1 and the “TOTAL deaths and removals” value ([3]; Study 1, 14-35 days) was 3. The “Deaths (dead/total pigs in treatment group)” value [3] was 2/298, the “Deaths, percentage of pigs” value [3] was 0.67% and the “Combined deaths and removals (number/total pigs)” value [4] was 5/228. The “Combined deaths and removals, percentage” value [4] was 2.2%, the “Deaths: APP (number of pigs)” value [4] was 2 and the “Deaths: Lame (number of pigs)” value [4] was 2. The “Removals: Unthrifty (number of pigs)” value [4] was 1, the ADFI ([5]; Study 1 (autumn), 0-14 days) was 2.72 kg/day and the FCR ([5]; Study 1 (autumn), 0-14 days) was 2.34 kg/kg. For the same compound, the ADFI ([5]; Study 1 (autumn), 0-35 days) was 2.96 kg/day, the FCR ([5]; Study 1 (autumn), 0-35 days) was 2.67 kg/kg and the ADFI ([5]; Study 1 (autumn), 14-35 days) was 3.13 kg/day. For the same compound, the FCR ([5]; Study 1 (autumn), 14-35 days) was 2.92 kg/kg, the “Live weight Day 0” value ([5]; Study 1 (autumn)) was 61.2 kg and the “Live weight Day 14” value ([5]; Study 1 (autumn)) was 77.6 kg. The “Live weight Day 35” value ([5]; Study 1 (autumn)) was 100.1 kg, the Dressing % [5, 11] was 77.6% and the “Carcass P2 (carcass weight as covariate)” value [5, 12] was 10.9 mm. The Carcass weight [5, 12] was 77.6, the “% pigs P2 >12 mm (carcass weight as covariate)” value [5, 11] was 26.4% and the “% pigs P2 >12 mm” value [5, 11] was 29.0%. The “Live weight Day 14” value ([6]; Study 3 (summer), RAC 7.5 ppm, caffeine 0.5 kg/t in feed, day 14) was 79.4 kg, the “Live weight Day 35” value ([6]; Study 3 (summer), RAC 7.5 ppm, caffeine 0.5 kg/t in feed, day 35) was 100.5 kg and the “Average daily feed intake” value ([6]; Study 3 (summer), Day 0-14) was 2.36 kg/day. The Average daily gain ([6]; Study 3 (summer), Day 0-14) was 1.132 kg/day, the Feed conversion ratio ([6]; Study 3 (summer), Day 0-14) was 2.15 kg/kg and the “Average daily feed intake” value ([6]; Study 3 (summer), Day 0-35) was 2.62 kg/day. For the same compound, the Average daily gain ([6]; Study 3 (summer), Day 0-35) was 1.056 kg/day, the Feed conversion ratio ([6]; Study 3 (summer), Day 0-35) was 2.48 kg/kg and the “Average daily feed intake” value ([6]; Study 3 (summer), Day 14-35) was 2.79 kg/day. For the same compound, the Average daily gain ([6]; Study 3 (summer), Day 14-35) was 1.004 kg/day, the Feed conversion ratio ([6]; Study 3 (summer), Day 14-35) was 2.80 kg/kg and the Loin muscle depth ([6]; Study 3 (summer), carcase) was 58.4 mm. For the same compound, the P2 ([6]; Study 3 (summer), carcase, carcase weight not taken into account) was 11.3 mm, the “Live weight Day 0” value ([6]; Study 3 (summer, 17-22 wk), RAC 7.5 ppm, caffeine 0.5 kg/t in feed, day 0 baseline) was 63.5 kg and the “Response (feed efficiency, daily gain, carcass composition) in words” value ([6]; Study 3, RAC at 7.5 ppm over the summer period) was “negligible”. For the same compound, the Average feed consumed ([6]; Study 3, entire test period) was 2.6 kg feed/day, the “Feed efficiency, more efficient than the control animals” value ([6]; Study 3, initial 14 day period, not significant) was “approximately 4%” and the Average feed intake ([6]; Study 3, initial 14 days) was 2.36 kg/day.

`Cn1c(=O)c2c(ncn2C)n(C)c1=O` [Caffeine] was tested, and the “Off trial: Meningitis (number of pigs)” value ([3]; Large White×Landrace, pig, in vivo) was 1, the “TOTAL deaths and removals” value ([3]; Study 1, 0-14 days) was 0 and the “Deaths: Ileitis (number of pigs)” value ([3]; Study 1, 14-35 days) was 1. The “Deaths: SD (number of pigs)” value ([3]; Study 1, 14-35 days) was 1, the “TOTAL deaths and removals” value ([3]; Study 1, 14-35 days) was 4 and the “Deaths (dead/total pigs in treatment group)” value [3] was 2/307. For the same compound, the “Deaths, percentage of pigs” value [3] was 0.65%, the “Off trial: Lame (number of pigs)” value ([3]; both, Large White×Landrace, pig, in vivo) was 1 and the ADFI ([5]; Study 1 (autumn), 0-14 days) was 2.44 kg/day. The FCR ([5]; Study 1 (autumn), 0-14 days) was 2.64 kg/kg, the ADFI ([5]; Study 1 (autumn), 0-35 days) was 2.70 kg/day and the FCR ([5]; Study 1 (autumn), 0-35 days) was 2.78 kg/kg. For the same compound, the ADFI ([5]; Study 1 (autumn), 14-35 days) was 2.88 kg/day, the FCR ([5]; Study 1 (autumn), 14-35 days) was 2.89 kg/kg and the “Live weight Day 0” value ([5]; Study 1 (autumn)) was 61.3 kg. For the same compound, the “Live weight Day 14” value ([5]; Study 1 (autumn)) was 74.2 kg, the “Live weight Day 35” value ([5]; Study 1 (autumn)) was 95.3 kg and the Dressing % [5, 11] was 77.9%. The “Carcass P2 (carcass weight as covariate)” value [5, 12] was 10.4 mm, the Carcass weight [5, 12] was 74.1 and the “% pigs P2 >12 mm (carcass weight as covariate)” value [5, 11] was 22.3%. The “% pigs P2 >12 mm” value [5, 11] was 19.5%, the “Carcass weight” value ([5]; Study 1, statistical comparison between diets) was “reduced carcass weight compared to either of the RAC treatment groups” and the “Reduction of growth rate” value (finisher pigs; caffeine 0.5 kg/t in diet) was 95 g/day. For the same compound, the Feed intake (finisher pigs; caffeine 0.5 kg/t in diet) was 2.45 kg/day, the “Reduction of growth rate” value (finisher pigs; caffeine 0.75 kg/t in diet) was 163 g/day and the Feed intake (finisher pigs; caffeine 0.75 kg/t in diet) was 2.33 kg/day.
